Measurements taken from patent US20250144109A1, “Compositions for preventing or treating pulmonary arterial hypertension” (CHONG KUN DANG PHARMACEUTICAL CORP., priority 2022, published 2025).

Tests used:
[1] = test system: HPASMC (human pulmonary artery smooth muscle) cells; assay: Cell proliferation inhibition (CCK-8) in TGF-β stimulated HPASMC cells; assay type: cell-based; settings: 1 μM drug with TGF-β 10 ng/ml, 24 hours, vs TGF-β only, FIG. 3
Protocol: TGF-β stimulation to HPASMC (human pulmonary artery smooth muscle) cells, which are a model of pulmonary arterial hypertension disease, and a cell proliferation inhibition rate according to treatment with six compounds of Synthesis Examples 1 to 6 were confirmed through cell viability measurement.
HPASMC (5.0×10^3 cells/well) cells were seeded in 96-well plate, and cultured for 24 hours in a serum free medium as starvation. 1 μM concentration of drugs (compounds 43, 295, 296, 40, 239, 285) were simultaneously treated with TGF-β (10 ng/ml) and cultured for 24 hours, after which cell viability was measured through CCK-8 assay, and the results thereof are shown in FIG. 3. In above FIG. 3, a control group indicates cells not treated with TGF-β and the compounds of Synthesis Examples, and “-” indicates cells treated only with TGF-β.

HPAEC cells = assay: Cell viability (CCK-8) of TGF-β stimulated HPAEC cells; assay type: cell-based, Human; settings: 1 μM drug with TGF-β 10 ng/ml, 48 hours, vs TGF-β only, FIG. 2
Protocol: TGF-β stimulation to HPAEC cells, which are a model of pulmonary arterial hypertension disease, and the survival rate according to the compounds of Synthesis Examples 1 to 6 were confirmed through cell viability measurement.
HPAEC (2.0×10^3 cells/well) cells were seeded in 96-well plate, and cultured for 24 hours in a serum free medium as starvation. 1 μM concentration of drugs (compounds 43, 295, 296, 40, 239, 285) were simultaneously treated with TGF-β (10 ng/ml) and cultured for 48 hours, after which cell viability was measured through CCK-8 assay, and the results thereof are shown in FIG. 2. In above FIG. 2, a control group indicates cells not treated with TGF-β and the compounds of Synthesis Examples, and “-” indicates cells treated only with TGF-β.

[2] = test system: tubulin acetylation in HPAEC (Human pulmonary artery endothelial cells); assay: Tubulin acetylation in HPAEC by Western blot (anti-acetyl tubulin); assay type: cell-based; settings: 4 hours at 37° C., concentration 0.1μ, FIG. 1
Protocol: HPAEC (3.0×10^5 cells/well, Human pulmonary artery endothelial cells) pulmonary artery endothelial cells were seeded in a six-well plate, and then treated with drugs (compounds 43, 295, 296, 40, 239, and 285) at each concentration. In four hours later at 37° C., proteins were extracted with lysis buffer and quantified by Bradford method. 5 μg of proteins were dissolved in sample buffer, subjected to electrophoresis on 4-12% gradient gel, transferred to a nitrocellulose membrane for seven minutes, and blocked in a 3% BSA solution for one hour. Anti-acetyl tubulin (1:1,000) and GAPDH (1:2,000) were added to the 3% BSA solution, after which the membrane was immersed therein and reacted at 4° C. for 10 hours, and then washed three times with 1×TBST for 10 minutes, respectively. IgG-HRP antibody (1:5,000) was added to 5% BSA, after which the membrane was immersed therein and reacted at room temperature for one hour, and then washed three times with 1×TBST for 10 minutes, respectively. In above FIG. 1, a control group indicates cells not treated with the compounds of Synthesis Examples.

[3] = test system: SD rats with monocrotaline (MCT)-induced pulmonary arterial hypertension; assay: MCT-induced pulmonary arterial hypertension animal model (survival, lung and ventricle weights, ECG); assay type: in vivo, rat; settings: 20 mg/kg oral twice a day
Protocol: SD rats having the following conditions were prepared.
Rats, experimental animals, were divided into groups as follows in consideration of a body weight on the day before drug administration began.
During a test period, the normal group was dosed with saline, and the control group (MCT+Vehicle) was subcutaneously dosed with a monocrotaline (MCT) aqueous solution once at 3 ml/Kg, and then dosed with a vehicle consisting of a mixed solution of cremophor EL, ethanol, and saline at a volume ratio of 1:1:8. A MCT aqueous solution was prepared to reach a concentration of 20 mg/mL in a solvent adjusted to pH 7.4 using a 1 N NAOH solution in 1 N HCL. After that, subcutaneous administration was performed by adjusting to […].
The drug administration group was first subcutaneously dosed with the MCT aqueous solution at 3 ml/Kg once, and then orally dosed with compound 43 (the compound of Synthesis Example 1) at 20 mg/Kg twice a day during the test period (four weeks). The compound 43 was dissolved in a mixed solution of cremophor EL, ethanol, and saline at a volume ratio of 1:1:8, and then orally administered.
All data were expressed as mean±standard error, and each group and the control group were compared using an unpaired T test (p<0.05) to determine the effect of each experimental group.
After group separation and then administration of the MCT aqueous solution, the survival rate was evaluated by confirming a dead individual during the test period.
The individual survival rate was calculated by reflecting the number of animals surviving in the corresponding week from the first 10 animals participating in the experiment for each group. Each number on the left side of the line graph means an individual survival rate % (number of surviving individuals/total number of animals participating in experiment).
After four weeks of the test period, the lung and the heart were removed to measure the weight of the lung and the weight of left ventricle and right ventricle in each group, and the results are shown in FIGS. 5 and 6.
After four weeks of the test period, the animal was subjected to inhalation anesthesia with isoflurane, and electrodes were attached to the limbs to measure the animal's electrocardiogram for more than 30 seconds. The result was measured using a Bio Amp ECG meter and analysis was performed using LabChart 8 software.

[4] = MCT rats, after four weeks, vs control group

O=C(N1CCS(=O)(=O)CC1)N(Cc1ccc(-c2nnc(C(F)F)o2)cc1F)c1ccccc1 [Compound 40, N-(4-(5-(difluoromethyl)-1,3,4-oxadiazol-2-yl)-2-fluorobenzyl)-N-phenylthiomorpholine-4-carboxamide 1,1-dioxide]
proliferation rate after TGF-β stimulation [1]: inhibited
survival rate (cell viability) after TGF-β stimulation (HPAEC cells): improved
tubulin acetylation (acetyl tubulin expression level) [2]: tubulin acetylation was expressed

O=C(N1CCS(=O)(=O)CC1)N(Cc1ccc(-c2nnc(C(F)F)o2)cn1)c1ccccc1 [Compound 43, N-((5-(5-(difluoromethyl)-1,3,4-oxadiazol-2-yl)pyridin-2-yl)methyl)-N-phenylthiomorpholine-4-carboxamide 1,1-dioxide]
proliferation rate after TGF-β stimulation [1]: inhibited
individual survival rate ([3]; MCT 50 mg/kg s.c. once, four weeks, vehicle control 50%, FIG. 4): 90%
JT interval (ECG) [3, 4]: significantly reduced
QT interval (ECG) [3, 4]: significantly reduced
QTc (ECG) [3, 4]: significantly reduced
ratio of right ventricle weight to left ventricle weight ([3]; MCT rats, after four weeks, vs control group, FIG. 6): significantly reduced
survival rate (cell viability) after TGF-β stimulation (HPAEC cells): improved
tubulin acetylation (acetyl tubulin expression level) [2]: tubulin acetylation was expressed

O=C(N1CCS(=O)(=O)CC1)N(Cc1ccc(-c2nnc(C(F)F)o2)cn1)c1cccc(Cl)c1 [Compound 239, N-(3-chlorophenyl)-N-((5-(5-(difluoromethyl)-1,3,4-oxadiazol-2-yl)pyridin-2-yl)methyl)thiomorpholine-4-carboxamide 1,1-dioxide]
proliferation rate after TGF-β stimulation [1]: inhibited
survival rate (cell viability) after TGF-β stimulation (HPAEC cells): improved
tubulin acetylation (acetyl tubulin expression level) [2]: tubulin acetylation was expressed

O=C(N1CCS(=O)(=O)CC1)N(Cc1ccc(-c2nnc(C(F)F)o2)cc1F)c1ccc(F)cc1 [Compound 285, N-(4-(5-(difluoromethyl)-1,3,4-oxadiazol-2-yl)-2-fluorobenzyl)-N-(4-fluorophenyl)thiomorpholine-4-carboxamide 1,1-dioxide]
proliferation rate after TGF-β stimulation [1]: inhibited
survival rate (cell viability) after TGF-β stimulation (HPAEC cells): improved
tubulin acetylation (acetyl tubulin expression level) [2]: tubulin acetylation was expressed

O=C(N1CCS(=O)(=O)CC1)N(Cc1ccc(-c2nnc(C(F)F)o2)cn1)c1ccc(F)cc1 [Compound 295, N-((5-(5-(difluoromethyl)-1,3,4-oxadiazol-2-yl)pyridin-2-yl)methyl)-N-(4-fluorophenyl)thiomorpholine-4-carboxamide 1,1-dioxide]
proliferation rate after TGF-β stimulation [1]: inhibited
survival rate (cell viability) after TGF-β stimulation (HPAEC cells): improved
tubulin acetylation (acetyl tubulin expression level) [2]: tubulin acetylation was expressed

O=C(N1CCS(=O)(=O)CC1)N(Cc1ccc(-c2nnc(C(F)F)o2)cn1)c1cccc(F)c1 [Compound 296, N-((5-(5-(difluoromethyl)-1,3,4-oxadiazol-2-yl)pyridin-2-yl)methyl)-N-(3-fluorophenyl)thiomorpholine-4-carboxamide 1,1-dioxide]
proliferation rate after TGF-β stimulation [1]: inhibited
survival rate (cell viability) after TGF-β stimulation (HPAEC cells): improved
tubulin acetylation (acetyl tubulin expression level) [2]: tubulin acetylation was expressed
